Values quoted from earlier work in publication PMC5889410, “Design and Biological Evaluation of Antifouling Dihydrostilbene Oxime Hybrids” (Marine Biotechnology (New York, N.y.), 2018).
Values after ≈ are worked out from the molar mass of the structure shown.

Assays:
[1] = tested on: Porphyridium purpureum; details: ref Moodie et al. ([2017b]); cited from earlier work
[2] = tested on: marine bacteria; details: panel of marine bacteria; ref Moodie et al. [2017b]; cited from earlier work
[3] = tested on: Ciona savignyi; set-up: method as in Moodie et al. [2017b]; details: ref Moodie et al. [2017b], cited from earlier work
[4] = tested on: Pleurochrysis roscoffensis; details: ref Moodie et al. ([2017b]); cited from earlier work
[5] = tested on: Vibrio harveyi; details: ref Moodie et al. ([2017b]); cited from earlier work
[6] = tested on: Halomonas aquamarina; details: ref Moodie et al. ([2017b]); cited from earlier work
[7] = tested on: Vibrio aestuarianus; details: ref Moodie et al. ([2017b]); cited from earlier work
[8] = tested on: Cylindrotheca closterium; details: ref Moodie et al. ([2017b]); cited from earlier work
[9] = tested on: Halomonas aquamarina; details: ref Moodie et al. ([2017b]); cited from earlier work; remark: listed apart in the source
[10] = tested on: Pseudoalteromonas elyakovii; details: ref Moodie et al. ([2017b]); cited from earlier work
[11] = tested on: Halamphora coffeaeformis; details: ref Moodie et al. ([2017b]); cited from earlier work
[12] = tested on: Vibrio natriegens; details: ref Moodie et al. ([2017b]); cited from earlier work
[13] = tested on: Shewanella putrefaciens; details: ref Moodie et al. ([2017b]); cited from earlier work
[14] = tested on: Halamphora coffeaeformis; details: ref Moodie et al. ([2017b]); cited from earlier work; remark: listed apart in the source
[15] = tested on: Balanus improvisus cyprid larvae; details: cited from earlier work
[16] = tested on: Vibrio proteolyticus; details: ref Moodie et al. ([2017b]); cited from earlier work
[17] = tested on: Vibrio carchariae; details: ref Moodie et al. ([2017b]); cited from earlier work
[18] = tested on: Roseobacter litoralis; details: ref Moodie et al. ([2017b]); cited from earlier work
[19] = tested on: Vibrio proteolyticus; details: ref Moodie et al. ([2017b]); cited from earlier work; remark: listed apart in the source
[20] = tested on: Pleurochrysis roscoffensis; details: ref Moodie et al. ([2017b]); cited from earlier work; remark: listed apart in the source
[21] = tested on: Cylindrotheca closterium; details: ref Moodie et al. ([2017b]); cited from earlier work; remark: listed apart in the source
[22] = tested on: Vibrio carchariae; details: ref Moodie et al. ([2017b]); cited from earlier work; remark: listed apart in the source
[23] = tested on: Vibrio harveyi; details: ref Moodie et al. ([2017b]); cited from earlier work; remark: listed apart in the source
[24] = tested on: Porphyridium purpureum; details: ref Moodie et al. ([2017b]); cited from earlier work; remark: listed apart in the source
[25] = tested on: Vibrio aestuarianus; details: ref Moodie et al. ([2017b]); cited from earlier work; remark: listed apart in the source

Compound: COc1ccc(CCc2ccccc2)cc1OC [Compound 2]
- MIC against the adhesion (A) of microalgae, P. purpureum [1]: 10 µg/mL
- Activity against bacterial adhesion [2]: inactive
- inhibition of settlement, in words ([3]; even after 5 days): effectively inhibited
- IC50 (settlement inhibition) [3]: 1.1 µg/mL (≈ 4.54 µM)
- toxicity, in words [3]: low toxicity
- MIC against the adhesion (A) of microalgae, P. roscoffensis [4]: 1 µg/mL
- MIC against the growth of marine bacteria, V.h. [5]: – (Not active at > 10 μg/mL)
- MIC against the adhesion of marine bacteria, H.a. [6]: – (Not active at > 10 μg/mL)
- MIC against the growth of marine bacteria, V.a. [7]: 10 µg/mL
- MIC against the adhesion (A) of microalgae, C. closterium [8]: 0.1 µg/mL
- MIC against the growth of marine bacteria, H.a. [9]: 0.01 µg/mL
- MIC against the growth of marine bacteria, P.e. [10]: 10 µg/mL
- MIC against the growth (G) of microalgae, H. coffeaformis [11]: 0.01 µg/mL
- MIC against the growth of marine bacteria, V.n. [12]: – (Not active at > 10 μg/mL)
- MIC against the growth of marine bacteria, S.p. [13]: 0.1 µg/mL
- MIC against the adhesion (A) of microalgae, H. coffeaformis [14]: 1 µg/mL
- IC50 (cyprid settlement inhibition) ([15]; B. improvisus, ref Moodie et al. ([2017b])): 0.75 µg/mL (≈ 3.1 µM)
- Toxicity (%) (dead cyprids) ([15]; B. improvisus, reported at 5 μg/mL, ref Moodie et al. ([2017b])): 5.3%
- toxicity, in words ([15]; Balanus improvisus, ref Moodie et al. [2017b]): low toxicity
- MIC against the growth of marine bacteria, V.p. [16]: – (Not active at > 10 μg/mL)
- MIC against the growth of marine bacteria, V.c. [17]: – (Not active at > 10 μg/mL)
- MIC against the growth of marine bacteria, R.l. [18]: 10 µg/mL
- MIC against the adhesion of marine bacteria, V.p. [19]: – (Not active at > 10 μg/mL)
- MIC against the growth (G) of microalgae, P. roscoffensis [20]: 0.01 µg/mL
- MIC against the growth (G) of microalgae, C. closterium [21]: 0.01 µg/mL
- MIC against the adhesion of marine bacteria, V.c. [22]: – (Not active at > 10 μg/mL)
- MIC against the adhesion of marine bacteria, V.h. [23]: – (Not active at > 10 μg/mL)
- MIC against the growth (G) of microalgae, P. purpureum [24]: 1 µg/mL
- MIC against the adhesion of marine bacteria, V.a. [25]: – (Not active at > 10 μg/mL)
